From patent US8039493B2, “Biaryl sulfonamide derivatives” (Hoffmann-La Roche Inc., priority 2008, dated 2011)

Legend:
[1] = molecular target: T1, human LXR beta (Homo sapiens, UniProt P55055); test: Radioligand binding assay (scintillation proximity), LXR beta-LBD; conditions: LXR beta-LBD on SPA beads, read-out: LXRbeta Binding IC50
T1 construct: human LXR beta (aa 155 to 460); made in house; host or cells: E. coli BL21 (pLysS)
T1 sequence (P55055 155-460): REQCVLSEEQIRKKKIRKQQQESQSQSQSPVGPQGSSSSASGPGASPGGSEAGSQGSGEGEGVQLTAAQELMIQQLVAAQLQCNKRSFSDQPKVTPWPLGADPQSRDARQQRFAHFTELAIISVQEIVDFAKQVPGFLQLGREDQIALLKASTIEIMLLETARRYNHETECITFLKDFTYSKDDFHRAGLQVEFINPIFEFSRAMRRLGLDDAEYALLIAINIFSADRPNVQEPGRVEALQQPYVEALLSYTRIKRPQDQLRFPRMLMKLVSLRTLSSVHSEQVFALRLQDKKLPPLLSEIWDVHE
Experimental: (§1) The following tests were carried out in order to determine the activity of the compounds of the present invention. […] Mammalian expression vectors were constructed to express full-length human LXR alpha and LXR beta. […] To accomplish this, the portions of the sequences encoding the LBDs were amplified from the full-length clones by PCR and then subcloned into the plasmid vectors.
(§2) Induction, expression, and purification of LBD proteins were performed in E. coli strain BL21 (pLysS) cells by standard methods (Ref: Current Protocols in Molecular Biology, Wiley Press, edited by Ausubel et al).
(§3) Radioligand Binding Assay
(§4) LXR alpha and LXR beta receptor binding were assayed in buffer consisting of 50 mM HEPES, pH 7.4, 10 mM NaCl, 5 mM MgCl2. For each 96-well reaction, 500 ng of LXRα-LBD or 700 ng of LXR beta-LBD proteins were bound to 80 μg or 40 μg SPA beads respectively, in a final volume of 50 μl by shaking. The resulting slurry was incubated for 1 h at RT and centrifuged for 2 min at 1300×g. The supernatant containing unbound protein was removed, and the semi-dry pellet containing the receptor-coated beads was re-suspended in 50 μl of buffer. Radioligand (eg. 100,000 dpm of (N-(2,2,2-trifluoroethyl)-N-[4-(2,2,2-trifluoro-1-hydroxy-1-trifluoromethylethyl)-phenyl]-benzenesulfonamide)) was added, and the reaction incubated at RT for 1 h in the presence of test compounds, and then scintillation proximity counting was performed. All binding assays were performed in 96-well plates and the amount of bound ligand was measured on a Packard TopCount using OptiPlates (Packard). Dose response curves were measured within a range of concentration from 10^−10 M to 10^−4 M.

[2] = molecular target: T2, human LXR alpha (Homo sapiens, UniProt Q13133); test: Radioligand binding assay (scintillation proximity), LXRα-LBD; conditions: LXRα-LBD on SPA beads, read-out: LXRalpha Binding IC50
T2 construct: human LXR alpha (aa 164 to 447); made in house; host or cells: E. coli BL21 (pLysS)
T2 sequence (Q13133 164-447): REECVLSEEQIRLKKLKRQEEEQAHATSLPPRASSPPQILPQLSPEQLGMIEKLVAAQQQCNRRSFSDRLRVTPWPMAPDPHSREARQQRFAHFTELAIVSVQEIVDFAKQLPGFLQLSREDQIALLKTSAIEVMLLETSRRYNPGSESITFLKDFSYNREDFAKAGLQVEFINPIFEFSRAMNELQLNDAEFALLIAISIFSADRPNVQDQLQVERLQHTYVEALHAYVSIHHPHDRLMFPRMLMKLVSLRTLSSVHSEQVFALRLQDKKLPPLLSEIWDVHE
Experimental: as §1, §2, §3, §4

Row | IC50 [1] [nM] | IC50 [2] [nM] | Compound
1 | 5410 | 5720 | CS(=O)(=O)c1cccc(-c2nnc(CN(Cc3ccccc3)S(=O)(=O)c3ccccc3C(F)(F)F)o2)c1 [Example 3, N-Benzyl-N-[5-(3-methanesulfonyl-phenyl)-[1,3,4]oxadiazol-2-ylmethyl]-2-trifluoromethyl-benzenesulfonamide]
2 | 170 | 8780 | CC(C)CN(Cc1cnc(-c2cccc(S(C)(=O)=O)c2)s1)S(=O)(=O)c1ccccc1Cl [Example 11, 2-Chloro-N-isobutyl-N-[2-(3-methanesulfonyl-phenyl)-thiazol-5-ylmethyl]-benzenesulfonamide]
3 | 40.5 | 3490 | CC(C)CN(Cc1ccc(-c2cccc(S(C)(=O)=O)c2)o1)S(=O)(=O)c1ccccc1Cl [Example 13, 2-Chloro-N-isobutyl-N-[5-(3-methanesulfonyl-phenyl)-furan-2-ylmethyl]-benzenesulfonamide]
4 | 19 | 26 | CC(C)CN(Cc1cccc(-c2cccc(S(C)(=O)=O)c2)c1)S(=O)(=O)c1ccccc1Cl [Example 43, 2-Chloro-N-isobutyl-N-(3′-methanesulfonyl-biphenyl-3-ylmethyl)-benzenesulfonamide]
5 | 123 | 685 | CS(=O)(=O)c1cccc(-c2ccc(CN(Cc3ccccc3)S(=O)(=O)c3ccccc3Cl)s2)c1 [Example 4, N-Benzyl-2-chloro-N-[5-(3-methanesulfonyl-phenyl)-thiophen-2-ylmethyl]-benzenesulfonamide]
6 | 560 | 925 | CC(C)CN(Cc1ccc(-c2cccc(S(C)(=O)=O)c2)s1)S(=O)(=O)c1cccc(Cl)c1 [Example 8, 3-Chloro-N-isobutyl-N-[5-(3-methanesulfonyl-phenyl)-thiophen-2-ylmethyl]-benzenesulfonamide]
7 | 28 | 2210 | CC(C)CN(Cc1ccc(-c2cccc(S(C)(=O)=O)c2)s1)S(=O)(=O)c1ccccc1F [Example 17, 2-Fluoro-N-isobutyl-N-[5-(3-methanesulfonyl-phenyl)-thiophen-2-ylmethyl]-benzenesulfonamide]
8 | 11.5 | 17.5 | CC(C)(C)OC(=O)CN(Cc1ccc(-c2cccc(S(C)(=O)=O)c2)s1)S(=O)(=O)c1ccccc1C(F)(F)F [Example 37, [[5-(3-Methanesulfonyl-phenyl)-thiophen-2-ylmethyl]-(2-trifluoromethyl-benzenesulfonyl)-amino]-acetic acid tert-butyl ester]
9 | 82 | 1440 | CC(C)CN(Cc1ccc(-c2cccc(S(C)(=O)=O)c2)s1)S(=O)(=O)c1c(Cl)cccc1Cl [Example 18, 2,6-Dichloro-N-isobutyl-N-[5-(3-methanesulfonyl-phenyl)-thiophen-2-ylmethyl]-benzenesulfonamide]
10 | 46 | 1570 | CS(=O)(=O)c1cccc(-c2ccc(CN(C(=O)c3ccccc3)S(=O)(=O)c3ccccc3Cl)s2)c1 [Example 6, N-Benzoyl-2-chloro-N-[5-(3-methanesulfonyl-phenyl)-thiophen-2-ylmethyl]-benzenesulfonamide]
11 | 37 | 790 | CS(=O)(=O)c1cccc(-c2ccc(CN(CC3CCCO3)S(=O)(=O)c3ccccc3C(F)(F)F)s2)c1 (stereo not drawn) [Example 41, N-[5-(3-Methanesulfonyl-phenyl)-thiophen-2-ylmethyl]-N-(tetrahydro-furan-2-ylmethyl)-2-trifluoromethyl-benzenesulfonamide]
12 | 56.5 | 2700 | CS(=O)(=O)c1cccc(-c2ncc(CN(Cc3ccccc3)S(=O)(=O)c3ccccc3Cl)s2)c1 [Example 10, N-Benzyl-2-chloro-N-[2-(3-methanesulfonyl-phenyl)-thiazol-5-ylmethyl]-benzenesulfonamide]
13 | 2860 | 25000 | CCS(=O)(=O)N(Cc1ccc(-c2cccc(S(C)(=O)=O)c2)s1)CC(C)C [Example 16, Ethanesulfonic acid isobutyl-[5-(3-methanesulfonyl-phenyl)-thiophen-2-ylmethyl]-amide]
14 | 17.5 | 665 | CS(=O)(=O)c1cccc(-c2ccc(CN(CC3CCC3)S(=O)(=O)c3ccccc3C(F)(F)F)s2)c1 [Example 36, N-Cyclobutylmethyl-N-[5-(3-methanesulfonyl-phenyl)-thiophen-2-ylmethyl]-2-trifluoromethyl-benzenesulfonamide]
15 | 30 | 3440 | CC(C)CN(Cc1cncc(-c2cccc(S(C)(=O)=O)c2)c1)S(=O)(=O)c1ccccc1Cl [Example 44, 2-Chloro-N-isobutyl-N-[5-(3-methanesulfonyl-phenyl)-pyridin-3-ylmethyl]-benzenesulfonamide]
16 | 2.2 | 68 | CC(C)CN(Cc1cc(-c2cccc(S(C)(=O)=O)c2)cs1)S(=O)(=O)c1ccccc1Cl [Example 14, 2-Chloro-N-isobutyl-N-[4-(3-methanesulfonyl-phenyl)-thiophen-2-ylmethyl]-benzenesulfonamide]
17 | 33.5 | 610 | CC(C)S(=O)(=O)N(Cc1cccc(-c2cccc(S(C)(=O)=O)c2)c1)Cc1ccccc1F [Example 52, Propane-2-sulfonic acid (2-fluoro-benzyl)-(3′-methanesulfonyl-biphenyl-3-ylmethyl)-amide]
18 | 280 | 1630 | CC(C)S(=O)(=O)N(Cc1cccc(-c2cccc(S(C)(=O)=O)c2)c1)CC1CCC1 [Example 51, Propane-2-sulfonic acid cyclobutylmethyl-(3′-methanesulfonyl-biphenyl-3-ylmethyl)-amide]
19 | 102 | 1170 | CC(C)CN(Cc1ccc(-c2cccc(S(C)(=O)=O)c2)s1)S(=O)(=O)c1ccccc1Cl [Example 5, 2-Chloro-N-isobutyl-N-[5-(3-methanesulfonyl-phenyl)-thiophen-2-ylmethyl]-benzenesulfonamide]
20 | 6.8 | 8.2 | CC(C)CN(Cc1ccc(-c2cccc(S(C)(=O)=O)c2)cc1F)S(=O)(=O)c1ccccc1Cl [Example 42, 2-Chloro-N-(3-fluoro-3′-methanesulfonyl-biphenyl-4-ylmethyl)-N-isobutyl-benzenesulfonamide]
21 | 1560 | 20100 | CCCN(Cc1cccc(-c2cccc(S(C)(=O)=O)c2)c1)S(=O)(=O)C(C)C [Example 49, Propane-2-sulfonic acid (3′-methanesulfonyl-biphenyl-3-ylmethyl)-propyl-amide]
22 | 150 | 7860 | CC(C)CN(Cc1ccnc(-c2cccc(S(C)(=O)=O)c2)c1)S(=O)(=O)c1ccccc1Cl [Example 48, 2-Chloro-N-isobutyl-N-[2-(3-methanesulfonyl-phenyl)-pyridin-4-ylmethyl]-benzenesulfonamide]
23 | 270 | 3750 | CC(C)CN(Cc1ccc(-c2cccc(S(C)(=O)=O)c2)s1)S(=O)(=O)C(F)(F)F [Example 20, Trifluoro-N-isobutyl-N-[5-(3-methanesulfonyl-phenyl)-thiophen-2-ylmethyl]-methanesulfonamide]
24 | 160 | 2410 | CCN(CC)C(=O)CN(Cc1ccc(-c2cccc(S(C)(=O)=O)c2)s1)S(=O)(=O)c1ccccc1C(F)(F)F [Example 38, N,N-Diethyl-2-[[5-(3-methanesulfonyl-phenyl)-thiophen-2-ylmethyl]-(2-trifluoromethyl-benzenesulfonyl)-amino]-acetamide]
